Assay results reported in patent publication US9241491B2, “Aerosol” (SABAN VENTURES PTY LIMITED, priority 2005, dated 2016).

Experiments:
[1] = Maximum peroxide concentration (peroxide density) in gas phase; assay type: physicochemical; conditions: for maximum achievable concentration for vapour systems: no evacuation; for Max. peroxide vapour concentration: initial 35% H2O2 solution
Spore strips = conditions: atmospheric pressure, below 80° C.; could not be achieved in less; cited from earlier work

SMILES: OO [hydrogen peroxide vapour, hydrogen peroxide]
- maximum achievable concentration for vapour systems ([1]; 0% humidity): 2.0 mg/L
- maximum achievable concentration for vapour systems ([1]; 25° C., 40% RH): 0.9 mg/L
- Max. peroxide vapour concentration ([1]; 20 ° C., 10% RH): 0.97 mg/L
- Max. peroxide vapour concentration ([1]; 20 ° C., 20% RH): 0.85 mg/L
- Max. peroxide vapour concentration ([1]; 20 ° C., 40% RH): 0.62 mg/L
- Max. peroxide vapour concentration ([1]; 20 ° C., 80% RH): 0.14 mg/L
- Max. peroxide vapour concentration ([1]; 40 ° C., 10% RH): 4.13 mg/L
- Max. peroxide vapour concentration ([1]; 40 ° C., 20% RH): 2.59 mg/L
- Max. peroxide vapour concentration ([1]; 40 ° C., 40% RH): 2.66 mg/L
- Max. peroxide vapour concentration ([1]; 40 ° C., 80% RH): 0.63 mg/L
- Max. peroxide vapour concentration ([1]; 60 ° C., 10% RH): 14.4 mg/L
- Max. peroxide vapour concentration ([1]; 60 ° C., 20% RH): 12.60 mg/L
- Max. peroxide vapour concentration ([1]; 60 ° C., 40% RH): 9.1 mg/L
- Max. peroxide vapour concentration ([1]; 60 ° C., 80% RH): 2.31 mg/L
- time to sterilization (Spore strips): ≥ 6 h
